US20260217688A1, “INHIBITORS OF JAK2” (Llydaw Therapeutics, Inc., priority 2022, published 2026)

What was measured:
JAK2 JH2 = molecular target: T1, JAK2 JH2 (Homo sapiens, UniProt O60674); assay: JAK2 JH2 TR-FRET Assay; type: binding; conditions: JAK2 JH2 1 nM, Tracer ZE84-0003 10 nM
T1 construct: Enzyme: JAK2 JH2, His-Avi-Tag, Biotin-Labeled (BPS Bioscience, Cat #79074) 1 nM; His; purchased BPS Bioscience 79074
Protocol: Assay Buffer 1×: • 20 mM HEPES pH 7.2-7.4; • 10 mM MgCl2; • 0.015% Brij-35; • 2 mM DTT; • 0.05 mg/ml BSA.
Final assay concentrations: • DMSO: 0.25%; • Streptavidin Tb-cryptate (Cisbio, Cat #610SATLB) 0.2 nM; • Enzyme: JAK2 JH2, His-Avi-Tag, Biotin-Labeled (BPS Bioscience, Cat #79074) 1 nM; • Probe: Tracer ZE84-0003 (ChemRar) 10 nM.
Materials: • Reaction plate: ProxiPlate-384 Plus White Plate (PerkinElmer); • Dilution plate: Diamond Well Plate (Axygen, Cat #P-384-120 SQ-C-S); • Compounds plate: Diamond Well Plate (Axygen, Cat #P-384-120 SQ-C-S).
Assay protocol: • 1. Prepare 400× solutions of compounds in DMSO into Compounds plate; • 2. Prepare Dilution plate: add 39 μL of 1× Assay buffer per well of Dilution plate; • 3. Prepare 2×Tb-cryptate mix in 1× Assay buffer. Add 10 μL of 2×Tb-cryptate mix to K-(Tb-cryptate and Probe without Enzyme) wells and blank (Tb-cryptate without Probe and Enzyme) wells; • 4. Add JAK2 JH2 into the rest of 2×Tb-cryptate mix to make 2×JAK2 JH2+Tb-cryptate mix. Add 10 μL per well into Reaction plate; • 5. Centrifuge plate at 200 g for 1 min; • 6. Dilute 1 μL of 400× compounds in 39 μL 1× Assay buffer in Dilution plate; • 7. Add 2 μL of 10× compounds from Dilution plate to Reaction plate with 10 μL of JAK2 JH2+Tb-cryptate mix; • 8. Centrifuge plate at 200 g for 1 min; • 9. Pre-incubate Reaction plate with compounds 15 min; • 10. Prepare 2.5× Tracer mix; • 11. Add 8 μL of 2.5× Tracer mix into appropriate wells of Reaction plate; • 12. Centrifuge plate at 800 g for 3 min; • 13. Incubate at rt for 15 min; • 14. Measure Fluorescence using Microplate Reader (Ex: TR, Em1/Em2: 482/520). The results of this assay are shown in the Table B. The values of EC50 shown as a letters A-D, where: A≤0.01 μM; 0.01 μM<B≤0.05 μM; 0.05 μM<C≤0.1 μM; D>0.1.

[1] = Proliferation inhibition assay (CellTiter-Glo), Ba/F3 JAK2 wt; type: cell-based; conditions: mouse, Ba/F3 (JAK2 wt) cells
Protocol: (§1) Ba/F3 (JAK2 wt) (ABM, T3076) cells and Ba/F3 (JAK2 V617F) (WuXi AppTec) cells were grown in RPMI-1640 (Gibco, cat. number 21870) supplemented with 10% FBS (Hyclone Laboratories Inc, Cat #SV30160.03), 1× Antibiotic-antimycotic (Gibco, Cat #15240-062), 2× Sodium pyruvate (Paneco, cat #F023), 2× Essential amino acids (Paneco, cat #F115/100), 1× Non-Essential amino acids (Paneco, cat #F116) at 37° C. in 5% CO2 atmosphere.
(§2) For the proliferation inhibition assay Ba/F3 (JAK2 wt) and Ba/F3 (JAK2 V617F) cells were seeded into a CellBIND® 384-well Flat Clear Bottom Black Polystyrene Microplates (Corning, USA, Cat #3770) at a density of 4000 cells per well in complete culture medium with or without 10 ng/ml rmIL-3 (RD systems, USA, Cat #403-ML-025) using Biomek FX/NX (384) liquid handler, 45 μl of cell suspension in complete culture medium per well. 500× compound's stocks in DMSO (Sigma Cat #D2650) were prepared in compounds plate (Diamond Well Plate, Axigen, Cat #P-384-120 SQ-C-S) applying Biomek 2000. 1 μl of 500× compounds stock was added to 49 μl of complete culture medium into Dilution plate (Diamond Well Plate, Axigen, Cat #P-384-120 SQ-C-S), mixed and then 5 μl of 10× compounds solution was transferred to cells using Biomek FX/NX (384) liquid handler. The centrifugation at 100 g for 1 min at Eppendorf 5810 followed. Final DMSO concentration in assay was 0.2%. All treatments were performed in technical and biological duplicates. Treated cells were incubated for 72 h at 37° C. with 5% CO2.
(§3) After 3 days of incubation, CellTiter-Glo Luminescent Cell Viability Assay (Promega) was performed. 10 μl of CellTiter-Glo (Promega, CAT #G7572) was added to the cells using Biomek FX/NX (384) liquid handler. The assay plate was centrifuged at 100 g for 1 min and luminescence signal was measured using Microplate Reader (CLARIOStar).

[2] = Proliferation inhibition assay (CellTiter-Glo), Ba/F3 JAK2 V617F; type: cell-based; conditions: mouse, Ba/F3 (JAK2 V617F) cells; with 10 ng/ml rmIL-3, 72 h; read-out: Ba/F3 JAK2 V617F + IL3, CC50 3 days
Protocol: as §1, §2, §3

Ba/F3 (JAK2 V617F) cells = assay: as above; type: cell-based; conditions: Mus musculus, BaF3; without IL3, 72 h; read-out: Ba/F3 JAK2 V617F, CC50 3 days
Protocol: as §1, §2, §3

[3] = with 10 ng/ml rmIL-3, 72 h, read-out: Ba/F3 JAK2 wt + IL3, CC50 3 days
[4] = without IL3, 72 h, read-out: Ba/F3 JAK2 wt, CC50 3 days

T1 sequence (O60674 545-809 limits assumed): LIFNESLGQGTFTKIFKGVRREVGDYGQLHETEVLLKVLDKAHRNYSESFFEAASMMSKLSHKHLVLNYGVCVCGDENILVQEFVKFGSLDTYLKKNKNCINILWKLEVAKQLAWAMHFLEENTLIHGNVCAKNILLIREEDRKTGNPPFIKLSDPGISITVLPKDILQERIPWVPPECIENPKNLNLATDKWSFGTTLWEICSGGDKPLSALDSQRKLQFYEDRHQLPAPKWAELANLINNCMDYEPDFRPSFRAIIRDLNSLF

| Compound | EC50 (JAK2 JH2) | CC50 at 72 h [1, 3] | CC50 at 72 h [1, 4] | CC50 at 72 h [2] | CC50 (Ba/F3 (JAK2 V617F) cells) |
| --- | --- | --- | --- | --- | --- |
| COc1c(Nc2nc(Nc3cnn(C)c3)ncc2C(N)=O)cccc1-c1ncn(C)n1 [Compound 1, 4-((2-Methoxy-3-(1-methyl-1H-1,2,4-triazol-3-yl)phenyl)amino)-2-((1-methyl-1H-pyrazol-4-yl)amino)pyrimidine-5-carboxamide] | 0.01 to 0.05 µM | > 10 µM | > 10 µM | 5 to 10 µM | 1 to 5 µM |
| COc1c(Nc2nc(Nc3cnn(C)c3)ncc2C(N)=O)cccc1-c1ccccn1 [Compound 2, 4-[2-methoxy-3-(2-pyridyl)anilino]-2-[(1-methylpyrazol-4-yl)amino]pyrimidine-5-carboxamide] | 0.05 to 0.1 µM | > 10 µM | > 10 µM | 1 to 5 µM | ≤ 0.5 µM |
| COc1c(Nc2nc(Nc3cnn(C)c3)ncc2C(N)=O)cccc1-c1nnc(C)o1 [Compound 3, 4-[2-methoxy-3-(5-methyl-1,3,4-oxadiazol-2-yl)anilino]-2-[(1-methylpyrazol-4-yl)amino]pyrimidine-5-carboxamide] | 0.01 to 0.05 µM | > 10 µM | > 10 µM | > 10 µM | 5 to 10 µM |
| COc1c(Nc2nc(Nc3cnn(C(C)C)c3)ncc2C(N)=O)cccc1-c1ncn(C)n1 [Compound 4, 2-((1-Isopropyl-1H-pyrazol-4-yl)amino)-4-((2-methoxy-3-(1-methyl-1H-1,2,4-triazol-3-yl)phenyl)amino)pyrimidine-5-carboxamide] | ≤ 0.01 µM | 5 to 10 µM | 5 to 10 µM | 1 to 5 µM | ≤ 0.5 µM |
| COc1c(Nc2nc(Nc3cnn(CCN(CC(C)C)CC(C)C)c3)ncc2C(N)=O)cccc1-c1ccccn1 [Compound 42, 2-[[1-[2-(diisobutylamino)ethyl]pyrazol-4-yl]amino]-4-[2-methoxy-3-(2-pyridyl)anilino]pyrimidine-5-carboxamide] | > 0.1 µM | 5 to 10 µM | – | – | 1 to 5 µM |
| COc1c(Nc2nc(Nc3cnn(C4CCOCC4)c3)ncc2C(N)=O)cccc1-c1nc2ccccc2o1 [Compound 44, 4-[3-(1,3-benzoxazol-2-yl)-2-methoxy-anilino]-2-[(1-tetrahydropyran-4-ylpyrazol-4-yl)amino]pyrimidine-5-carboxamide] | 0.01 to 0.05 µM | 1 to 5 µM | – | – | ≤ 0.5 µM |
| COc1c(Nc2nc(Nc3cnn(C4CCCCC4)c3)ncc2C(N)=O)cccc1-c1nc2ccccc2o1 [Compound 45, 4-[3-(1,3-benzoxazol-2-yl)-2-methoxy-anilino]-2-[(1-cyclohexylpyrazol-4-yl)amino]pyrimidine-5-carboxamide] | > 0.1 µM | 5 to 10 µM | – | – | 0.5 to 1 µM |
| COc1c(Nc2nc(Nc3cnn(CCCN(C)C)c3)ncc2C(N)=O)cccc1-c1nc2ccccc2o1 [Compound 46, 4-[3-(1,3-benzoxazol-2-yl)-2-methoxy-anilino]-2-[[1-[3-(dimethylamino)propyl]pyrazol-4-yl]amino]pyrimidine-5-carboxamide] | 0.05 to 0.1 µM | 1 to 5 µM | – | – | ≤ 0.5 µM |
| COc1c(Nc2nc(Nc3cnn(C4CCN(C)CC4)c3)ncc2C(N)=O)cccc1-c1ccccn1 [Compound 47] | > 0.1 µM | 5 to 10 µM | – | – | 1 to 5 µM |
| COc1c(Nc2nc(Nc3cnn(C4CCN(C(C)C)CC4)c3)ncc2C(N)=O)cccc1-c1ccccn1 [Compound 48, 2-[[1-(1-isopropyl-4-piperidyl)pyrazol-4-yl]amino]-4-[2-methoxy-3-(2-pyridyl)anilino]pyrimidine-5-carboxamide] | 0.05 to 0.1 µM | 1 to 5 µM | – | – | ≤ 0.5 µM |
| COc1c(Nc2nc(Nc3cnn(C45CC6CC(CC(C6)C4)C5)c3)ncc2C(N)=O)cccc1-c1nc2ccccc2o1 [Compound 49, 2-[[1-(1-adamantyl)pyrazol-4-yl]amino]-4-[3-(1,3-benzoxazol-2-yl)-2-methoxy-anilino]pyrimidine-5-carboxamide] | > 0.1 µM | 5 to 10 µM | – | – | 5 to 10 µM |
| COCCn1cc(Nc2ncc(C(N)=O)c(Nc3cccc(-c4nc5ccccc5o4)c3OC)n2)cn1 [Compound 50] | 0.01 to 0.05 µM | > 10 µM | – | – | ≤ 0.5 µM |
| COCCn1cc(Nc2ncc(C(N)=O)c(Nc3cccc(-c4ncn(C)n4)c3OC)n2)cn1 [Compound 51] | 0.01 to 0.05 µM | > 10 µM | – | – | 1 to 5 µM |
| COCCCn1cc(Nc2ncc(C(N)=O)c(Nc3cccc(-c4nc5ccccc5o4)c3OC)n2)cn1 [Compound 52, 4-[3-(1,3-benzoxazol-2-yl)-2-methoxy-anilino]-2-[[1-(3-methoxypropyl)pyrazol-4-yl]amino]pyrimidine-5-carboxamide] | 0.01 to 0.05 µM | 1 to 5 µM | – | – | ≤ 0.5 µM |
| COCCCn1cc(Nc2ncc(C(N)=O)c(Nc3cccc(-c4ncn(CCCOC)n4)c3OC)n2)cn1 [Compound 53] | 0.01 to 0.05 µM | > 10 µM | – | – | 1 to 5 µM |
| CCOCCn1cc(Nc2ncc(C(N)=O)c(Nc3cccc(-c4nc5ccccc5o4)c3OC)n2)cn1 [Compound 54] | 0.01 to 0.05 µM | 1 to 5 µM | – | – | ≤ 0.5 µM |
| CCOCCn1cc(Nc2ncc(C(N)=O)c(Nc3cccc(-c4ncn(C)n4)c3OC)n2)cn1 [Compound 55, 2-[[1-(2-ethoxyethyl)pyrazol-4-yl]amino]-4-[2-methoxy-3-(1-methyl-1,2,4-triazol-3-yl)anilino]pyrimidine-5-carboxamide] | 0.01 to 0.05 µM | > 10 µM | – | – | 1 to 5 µM |
| COc1c(Nc2nc(Nc3cnn(CC(C)C)c3)ncc2C(N)=O)cccc1-c1nc2ccccc2o1 [Compound 56, 4-[3-(1,3-benzoxazol-2-yl)-2-methoxy-anilino]-2-[(1-isobutylpyrazol-4-yl)amino]pyrimidine-5-carboxamide] | > 0.1 µM | 5 to 10 µM | – | – | 0.5 to 1 µM |
| COc1c(Nc2nc(Nc3cnn(CC(F)(F)F)c3)ncc2C(N)=O)cccc1-c1nc2ccccc2o1 [Compound 57, 4-[3-(1,3-benzoxazol-2-yl)-2-methoxy-anilino]-2-[[1-(2,2,2-trifluoroethyl)pyrazol-4-yl]amino]pyrimidine-5-carboxamide] | > 0.1 µM | > 10 µM | – | – | > 10 µM |
